Measured values published in patent US20240108702A1, “Use Of Naturally Occurring Cyclic Peptides For Treatment Of SARS-COV-2 Infection” (The University of Southern California, priority 2021, published 2024).
Where a SMILES comes first, the peptide text is derived from it. Bridges are numbered along the chain shown (N, C = ends).

Legend:
in vivo [1] = conditions: both, cynomolgus monkey, iv
TMPRSS2 = TMPRSS2 (Homo sapiens, UniProt O15393); test: Cellular TMPRSS2 inhibition assay in Calu3 cells; type: cell-based; set-up: endogenous in cells; host or cells: Calu3 (Calu-3) cells
Method: TMPRSS2 inhibition assays. Peptides (0-50 μg/ml) were tested for their inhibitory activities against TMPRSS2 in cellular assays using Vero E6 cells, Caco-2 cells, or Calu-3 cells using standard conditions. TMPRSS2 activity was assayed in real time for 120 min by monitoring the cleavage of the TMPRSS2 substrate, Boc-Leu-Gly-Arg-AMC. Following the 2 h enzyme assay, cells were evaluated for viability using the CellTiter-Glo cellular toxicity assay.

[2] = Mouse model of LPS-induced acute lung injury (ALI), subcutaneous injection; conditions: in vivo, sc
in vivo [3] = conditions: both, Sprague-Dawley, rat, iv

Chain of TMPRSS2 (O15393 whole entry): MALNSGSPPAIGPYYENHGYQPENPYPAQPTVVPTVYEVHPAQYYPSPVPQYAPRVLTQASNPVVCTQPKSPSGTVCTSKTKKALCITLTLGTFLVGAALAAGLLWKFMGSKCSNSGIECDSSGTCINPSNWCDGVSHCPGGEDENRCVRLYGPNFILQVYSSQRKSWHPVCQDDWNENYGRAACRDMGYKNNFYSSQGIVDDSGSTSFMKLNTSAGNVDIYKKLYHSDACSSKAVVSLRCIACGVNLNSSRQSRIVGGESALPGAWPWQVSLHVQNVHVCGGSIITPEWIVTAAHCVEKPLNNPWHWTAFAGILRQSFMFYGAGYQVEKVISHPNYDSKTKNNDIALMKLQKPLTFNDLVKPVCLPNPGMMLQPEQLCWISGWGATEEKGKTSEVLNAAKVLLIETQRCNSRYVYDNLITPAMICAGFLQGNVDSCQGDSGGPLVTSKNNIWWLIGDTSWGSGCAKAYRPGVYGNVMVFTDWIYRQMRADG

Compound CC[C@H](C)[C@@H]1NC(=O)[C@@H]2CSSC[C@H](NC(=O)[C@H](CCCNC(=N)N)NC(=O)[C@@H]3CSSC[C@H](NC1=O)C(=O)N[C@@H]([C@@H](C)O)C(=O)N[C@@H](CCCNC(=N)N)C(=O)NCC(=O)N[C@@H](Cc1ccccc1)C(=O)N3)C(=O)N[C@@H](CC(C)C)C(=O)N[C@H]1CSSC[C@H](NC(=O)[C@H](C(C)C)NC(=O)CNC(=O)[C@H](CCCNC(=N)N)NC(=O)[C@H](CCCNC(=N)N)NC1=O)C(=O)N[C@@H](CCCNC(=N)N)C(=O)N2 [Peptide 1] (cyclo(GFCRCLCRRGVCRCICTR); disulfide 3-16, 5-14, 7-12) has an MTD at 7 days (in vivo [1]) of 15 mg/kg, an NOAEL at 7 days (in vivo [1]; 15 mg/kg) of 15 mg/kg/day and an IC50 (TMPRSS2) of 3.12 to 3.84 µM. For the same compound, the AUC(0-inf) ([2]; 5 mg/kg) was 3870 ng·h/mL, the AUC(0-inf) ([2]; 25 mg/kg) was 9000 ng·h/mL and the AUC (in vivo [3]; 5 mg/kg) was 15000 ng·h/mL. For the same compound, the AUC(0-inf) (in vivo [3]; 5 mg/kg) was 15900 ng·h/mL, the Cmax (in vivo [3]; 5 mg/kg) was 7470 ng/mL and the MRT (in vivo [3]; 5 mg/kg) was 4.37 h. The Vd (in vivo [3]; 5 mg/kg) was 1.46 L/kg, the clearance (in vivo [3]; 5 mg/kg) was 5.57 mL/min/kg and the AUC (in vivo [3]; 5 mg/kg/day) was 12500 ng·h/mL. For the same compound, the AUC(0-inf) (in vivo [3]; 5 mg/kg/day) was 12700 ng·h/mL, the Cmax (in vivo [3]; 5 mg/kg/day) was 10100 ng/mL and the MRT (in vivo [3]; 5 mg/kg/day) was 2.92 h. For the same compound, the Vd (in vivo [3]; 5 mg/kg/day) was 1.17 L/kg, the clearance (in vivo [3]; 5 mg/kg/day) was 6.68 mL/min/kg and the AUC (in vivo [3]; 10 mg/kg) was 41700 ng·h/mL. The AUC(0-inf) (in vivo [3]; 10 mg/kg) was 42100 ng·h/mL, the Cmax (in vivo [3]; 10 mg/kg) was 27500 ng/mL and the MRT (in vivo [3]; 10 mg/kg) was 2.88 h. The Vd (in vivo [3]; 10 mg/kg) was 0.691 L/kg, the clearance (in vivo [3]; 10 mg/kg) was 4 mL/min/kg and the AUC (in vivo [3]; 10 mg/kg/day) was 34100 ng·h/mL. The AUC(0-inf) (in vivo [3]; 10 mg/kg/day) was 34700 ng·h/mL, the Cmax (in vivo [3]; 10 mg/kg/day) was 21800 ng/mL and the MRT (in vivo [3]; 10 mg/kg/day) was 3.45 h. The Vd (in vivo [3]; 10 mg/kg/day) was 1.01 L/kg, the clearance (in vivo [3]; 10 mg/kg/day) was 4.88 mL/min/kg and the AUC (in vivo [3]; 20 mg/kg) was 127000 ng·h/mL. It also gave an AUC(0-inf) (in vivo [3]; 20 mg/kg) of 127000 ng·h/mL, a Cmax (in vivo [3]; 20 mg/kg) of 35400 ng/mL and an MRT (in vivo [3]; 20 mg/kg) of 4.81 h. The Vd (in vivo [3]; 20 mg/kg) was 0.758 L/kg and the clearance (in vivo [3]; 20 mg/kg) was 2.62 mL/min/kg.
